Assay results from paper PMC9294463, “Green Synthesis of Thiazolidine-2,4-dione Derivatives and Their Lipoxygenase Inhibition Activity With QSAR and Molecular Docking Studies” (Frontiers in Chemistry, 2022).

Target: T1, soybean lipoxygenase (Glycine max, UniProt P08170)
T1 construct: gene LOX1.1
T1 sequence (P08170 1-839): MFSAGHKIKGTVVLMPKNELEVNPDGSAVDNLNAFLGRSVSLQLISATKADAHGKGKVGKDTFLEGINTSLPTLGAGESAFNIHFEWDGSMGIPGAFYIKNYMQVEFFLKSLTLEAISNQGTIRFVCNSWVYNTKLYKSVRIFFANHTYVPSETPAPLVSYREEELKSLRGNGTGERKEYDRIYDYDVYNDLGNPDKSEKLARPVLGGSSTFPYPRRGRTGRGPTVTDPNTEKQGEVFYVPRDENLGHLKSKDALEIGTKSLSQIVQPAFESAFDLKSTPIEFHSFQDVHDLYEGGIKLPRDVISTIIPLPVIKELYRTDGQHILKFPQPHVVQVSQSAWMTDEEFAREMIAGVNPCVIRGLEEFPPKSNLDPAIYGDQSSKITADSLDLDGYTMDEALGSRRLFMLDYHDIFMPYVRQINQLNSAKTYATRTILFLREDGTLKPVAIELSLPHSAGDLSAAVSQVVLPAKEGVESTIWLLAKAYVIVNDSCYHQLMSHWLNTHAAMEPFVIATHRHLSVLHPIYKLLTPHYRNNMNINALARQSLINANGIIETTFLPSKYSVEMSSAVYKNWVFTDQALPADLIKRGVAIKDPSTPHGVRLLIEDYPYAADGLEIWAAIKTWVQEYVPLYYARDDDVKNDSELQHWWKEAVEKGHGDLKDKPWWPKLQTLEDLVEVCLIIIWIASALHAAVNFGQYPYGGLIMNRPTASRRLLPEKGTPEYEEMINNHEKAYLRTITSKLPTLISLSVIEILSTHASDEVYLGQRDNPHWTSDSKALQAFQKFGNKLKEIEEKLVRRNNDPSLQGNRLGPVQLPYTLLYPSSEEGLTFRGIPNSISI
Assay: soybean lipoxygenase inhibition assay, % inhibition at […] (standard)
Assay type: biochemical

Compound `C[C@H](Cc1ccc(O)c(O)c1)[C@@H](C)Cc1ccc(O)c(O)c1` [NDGA, nordihydroguaiaretic acid] has an inhibition at 100 µM of 80.8%.
